In patent US6875774B2, “Aza-bridged bicyclic amine derivatives for use as novel cholinergic receptor ligands” (The University of North Carolina, priority 2002, dated 2005):
Structures can show the parent of a compound that is named as a salt. Where two headings read alike, the source gives them in different places.

How the values were obtained:
[1] = target: T1, human M1 receptor (Homo sapiens, UniProt P11229); assay: biochemical; format: binding
T1 construct: made in house; host or cells: Sf9 insect cells (baculovirus)
T1 sequence (P11229 1-460): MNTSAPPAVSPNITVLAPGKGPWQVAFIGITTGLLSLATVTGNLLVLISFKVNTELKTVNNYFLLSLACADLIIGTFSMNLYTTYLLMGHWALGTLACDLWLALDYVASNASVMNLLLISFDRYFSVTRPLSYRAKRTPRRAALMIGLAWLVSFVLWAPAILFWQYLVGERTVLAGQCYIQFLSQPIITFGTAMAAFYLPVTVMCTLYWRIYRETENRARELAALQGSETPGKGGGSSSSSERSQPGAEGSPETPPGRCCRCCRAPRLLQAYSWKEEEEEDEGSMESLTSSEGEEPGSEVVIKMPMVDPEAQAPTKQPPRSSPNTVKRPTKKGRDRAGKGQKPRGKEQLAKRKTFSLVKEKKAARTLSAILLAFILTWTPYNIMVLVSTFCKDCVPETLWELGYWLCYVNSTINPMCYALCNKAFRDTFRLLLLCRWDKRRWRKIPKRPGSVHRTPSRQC

[2] = target: T2, human M2 receptor (Homo sapiens, UniProt P08172); assay: Muscarinic M2 competition binding assay ([3H]QNB, Sf9 membranes)
T2 construct: made in house; host or cells: Sf9 insect cells (baculovirus)
T2 sequence (P08172 1-466): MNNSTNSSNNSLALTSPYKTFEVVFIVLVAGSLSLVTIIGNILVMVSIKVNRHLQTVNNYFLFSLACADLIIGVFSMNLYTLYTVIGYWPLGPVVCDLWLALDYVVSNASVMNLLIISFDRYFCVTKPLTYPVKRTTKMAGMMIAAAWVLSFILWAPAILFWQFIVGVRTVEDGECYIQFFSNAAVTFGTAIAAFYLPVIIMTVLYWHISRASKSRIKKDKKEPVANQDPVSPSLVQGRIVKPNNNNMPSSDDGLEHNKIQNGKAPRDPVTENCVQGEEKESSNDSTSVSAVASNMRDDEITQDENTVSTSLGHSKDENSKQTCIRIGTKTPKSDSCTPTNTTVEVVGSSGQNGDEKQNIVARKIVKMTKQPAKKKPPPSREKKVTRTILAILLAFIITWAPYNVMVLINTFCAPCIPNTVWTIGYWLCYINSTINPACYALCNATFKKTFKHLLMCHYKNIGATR

[3] = target: T1, human M1 receptor; assay: Functional assay of M1 muscarinic receptors ([3H]inositol phosphate accumulation in Sf9 cells); format: cell-based; details: 100 μM carbachol with increasing amounts of compound (FIG. 3)
Description: A functional assay of M1 muscarinic receptors was performed. M1 receptor activity was determined by measuring activation of the Gαq effector, phospholipase C-β. Recombinant human M1 receptor was expressed (48 h) from a baculovirus in Sf9 insect cells. The inositol lipid pool of cells was radiolabeled by incubating the cells overnight in inositol-free Grace's medium containing 1 μCi of myo-[^3H]inositol. The medium was supplemented with 50 mM HEPES, pH 7.4, and 10 mM LiCl (final concentration) and placed in a 27° C. bath for 10 min prior to assay. The assay was initiated by addition of the appropriate ligand(s) and incubations continued for 20 min. The assay was terminated by aspirating the medium and adding 750 μL of ice-cold 50 mM formic acid. After 30 min at 4° C., the samples were neutralized with 250 μL of 150 mM NH4OH. [^3H]Inositol phosphates were isolated by ion exchange chromatography on Dowex AG 1-X8 columns and quantitated by liquid scintillation counting. […] The data shown in FIG. 3 are the results of an experiment performed in triplicate.

SMILES: O=C1CCN2CCCC1C2 (stereo not drawn) [Compound 9, 1-Azabicyclo[3.3.1]nonan-4-one]
- Ki ([1]; hM1 receptor Ki): > 100 µM
- Ki ([2]; hM2 receptor Ki): > 100 µM

SMILES: CN(C)CC1CCC2CN1CCC2=O (stereo not drawn) [Compound 13, endo-8-Dimethylaminomethyl-1-azabicyclo[3.3.1]nonan-4-one-HCl]
- Ki ([1]; read-out: hM1 receptor Ki): > 100 µM
- Ki ([2]; read-out: hM2 receptor Ki): > 100 µM

SMILES: CCOC(=O)C1=C(O)C2CCC(CN(C)C)N(C1)C2 (stereo not drawn) [Compound 8, endo-8-Dimethylaminomethyl-3-ethoxycarbonyl-4-hydroxy-1-azabicyclo[3.3.1]non-3-ene]
- Ki ([1]; read-out: hM1 receptor Ki): 12.4 ± 3.74 µM
- Ki ([2]; read-out: hM2 receptor Ki): 47.6 ± 14.8 µM

SMILES: CCOC(=O)C1=C(O)[C@H]2CC[C@H](COCc3ccccc3)N(C1)C2 (relative stereo) [Compound 5, exo-8-Benzyloxymethyl-3-ethoxycarbonyl-4-hydroxy-1-azabicyclo[3.3.1]non-3-ene]
- Ki ([1]; read-out: hM1 receptor Ki): 0.203 ± 0.083 µM
- Ki ([2]; read-out: hM2 receptor Ki): 0.0843 ± 0.0081 µM
- Ki fold greater than atropine at the human M2 receptor ([2]; relative to atropine): 14 fold
- functional activity at muscarinic receptor [3]: muscarinic receptor antagonist

SMILES: CN(C)CC1CCC2CN1CCC2=O (stereo not drawn) [Compound 12, exo-8-Dimethylaminomethyl-1-azabicyclo[3.3.1]nonan-4-one-HCl]
- Ki ([1]; hM1 receptor Ki): > 100 µM
- Ki ([2]; hM2 receptor Ki): > 100 µM

SMILES: CCOC(=O)C1=C(O)[C@H]2CC[C@@H](COCc3ccccc3)N(C1)C2 (relative stereo) [Compound 6, endo-8-Benzyloxymethyl-3-ethoxycarbonyl-4-hydroxy-1-azabicyclo[3.3.1]non-3-ene]
- Ki ([1]; read-out: hM1 receptor Ki): 10.3 ± 2.38 µM
- Ki ([2]; read-out: hM2 receptor Ki): 7.35 ± 1.09 µM

SMILES: CCOC(=O)C1=C(O)C2CCCN(C1)C2 (stereo not drawn) [Compound 4, 3-Ethoxycarbonyl-4-hydroxy-1-azabicyclo[3.3.1]non-3-ene]
- Ki ([1]; hM1 receptor Ki): 1.01 ± 0.068 µM
- Ki ([2]; hM2 receptor Ki): 2.85 ± 0.179 µM

SMILES: CCOC(=O)C1=C(O)C2CCC(CN(C)C)N(C1)C2 (stereo not drawn) [Compound 7, exo-8-Dimethylaminomethyl-3-ethoxycarbonyl-4-hydroxy-1-azabicyclo[3.3.1]non-3-ene]
- Ki ([1]; read-out: hM1 receptor Ki): 16.8 ± 15.2 µM
- Ki ([2]; read-out: hM2 receptor Ki): 23.9 ± 13.7 µM
